Converted amounts (≈) assume the structure as drawn.
Experiments:
[1] = tested on: Mycobacterium tuberculosis; assay: Antimycobacterial activity against Mycobacterium tuberculosis by agar dilution method; assay type: functional
[2] = biological target: T1, Human immunodeficiency virus type 1 integrase (Human immunodeficiency virus 1, UniProt Q7ZJM1); assay: Inhibition of HIV1 recombinant integrase strand transfer activity
[3] = Cytotoxicity against CEM cells after 5 days by MTT method; assay type: cell-based; details: human, CCRF-CEM (CEM) cells
[4] = tested on: Human immunodeficiency virus 1; assay: Antiviral activity against HIV1 3B in CEM cells assessed as inhibition of viral-induced cytopathicity; assay type: functional, organism-based; details: Human immunodeficiency virus 1, 3B, CCRF-CEM
[5] = biological target: T1, Human immunodeficiency virus type 1 integrase; assay: Inhibition of HIV1 recombinant integrase 3'-processing activity
[6] = Selectivity index, ratio of CC50 for CEM cells to EC50 for HIV1 3B; assay type: functional, CCRF-CEM

T1 sequence (Q7ZJM1 whole entry): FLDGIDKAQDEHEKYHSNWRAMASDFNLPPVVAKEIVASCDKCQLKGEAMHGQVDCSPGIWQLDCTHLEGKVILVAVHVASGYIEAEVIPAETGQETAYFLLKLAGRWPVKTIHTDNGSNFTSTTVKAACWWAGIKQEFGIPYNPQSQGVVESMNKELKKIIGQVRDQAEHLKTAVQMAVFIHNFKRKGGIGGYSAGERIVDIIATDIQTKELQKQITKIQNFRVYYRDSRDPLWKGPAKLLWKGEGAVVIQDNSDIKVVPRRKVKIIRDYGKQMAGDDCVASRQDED

Compound | MIC [1] | IC50 [2] | CC50 at 120 h [3] | EC50 [4] | IC50 [5] | Ratio CC50/EC50 [6]
CCn1cc(C(=O)O)c(=O)c2cc(F)c(N3CCN(CNC(=O)C4=C(O)[C@@H](N(C)C)[C@@H]5C[C@H]6C(=C(O)[C@]5(O)C4=O)C(=O)c4c(O)cccc4[C@@]6(C)O)C(C)C3)c(F)c21 (stereo not given in full) | 1.56 µg/mL (≈ 1.93 µM) | 44 µM | > 200 µM | 7.58 µM | 65 µM | 
CCn1cc(C(=O)O)c(=O)c2cc(F)c(N3CCN(CNC(=O)C4=C(O)[C@@H](N(C)C)[C@@H]5C[C@@H]6Cc7c(N(C)C)ccc(O)c7C(=O)C6=C(O)[C@]5(O)C4=O)C(C)C3)c(F)c21 (stereo not given in full) | 0.2 µg/mL (≈ 0.244 µM) | 18 µM | > 200 µM | 5.2 µM | 20 µM | >38
CCn1cc(C(=O)O)c(=O)c2cc(F)c(N3CCN(CNC(=O)C4=C(O)[C@@H](N(C)C)[C@@H]5[C@@H](O)[C@H]6C(=C(O)[C@]5(O)C4=O)C(=O)c4c(O)cccc4[C@@]6(C)O)C(C)C3)c(F)c21 (stereo not given in full) | 0.78 µg/mL (≈ 0.947 µM) |  | 37.4 µM | 15.1 µM |  | 
CCn1cc(C(=O)O)c(=O)c2cc(F)c(N3CCNC(C)C3)c(F)c21 (stereo not given) [LOMEFLOXACIN] | 6.25 µg/mL (≈ 17.8 µM) |  |  |  |  | 
CN(C)[C@@H]1C(O)=C(C(=O)NCN2CCN(c3cc4c(cc3F)c(=O)c(C(=O)O)cn4C3CC3)CC2)C(=O)[C@@]2(O)C(O)=C3C(=O)c4c(O)cccc4[C@@](C)(O)[C@H]3C[C@@H]12 | 0.39 µg/mL (≈ 0.495 µM) | 12 µM | 141 µM | 8.4 µM | 20 µM | 
CN(C)c1ccc(O)c2c1C[C@H]1C[C@H]3[C@H](N(C)C)C(O)=C(C(=O)NCN4CCN(c5cc6c(cc5F)c(=O)c(C(=O)O)cn6C5CC5)CC4)C(=O)[C@@]3(O)C(O)=C1C2=O | 0.78 µg/mL (≈ 0.974 µM) |  | 120 µM | > 120 µM |  | 
COc1c(N2CCN(CNC(=O)C3=C(O)[C@@H](N(C)C)[C@@H]4C[C@H]5C(=C(O)[C@]4(O)C3=O)C(=O)c3c(O)cccc3[C@@]5(C)O)C(C)C2)c(F)cc2c(=O)c(C(=O)O)cn(C3CC3)c12 (stereo not given in full) | 0.2 µg/mL (≈ 0.24 µM) |  | 140 µM | 20.2 µM |  | 
COc1c(N2CCN(CNC(=O)C3=C(O)[C@@H](N(C)C)[C@@H]4[C@@H](O)[C@H]5C(=C(O)[C@]4(O)C3=O)C(=O)c3c(O)cccc3[C@@]5(C)O)C(C)C2)c(F)cc2c(=O)c(C(=O)O)cn(C3CC3)c12 (stereo not given in full) | 0.39 µg/mL (≈ 0.46 µM) | 13.5 µM | 28.9 µM | > 28.9 µM | 28 µM | 
CCn1cc(C(=O)O)c(=O)c2cc(F)c(N3CCN(CNC(=O)C4=C(O)[C@@H](N(C)C)[C@@H]5C[C@H]6C(=C(O)[C@]5(O)C4=O)C(=O)c4c(O)cccc4[C@@]6(C)O)CC3)cc21 | 0.78 µg/mL (≈ 1.01 µM) | 13 µM | 131 µM | 14.6 µM | 20 µM | 
CCn1cc(C(=O)O)c(=O)c2cc(F)c(N3CCN(CNC(=O)C4=C(O)[C@@H](N(C)C)[C@@H]5C[C@@H]6Cc7c(N(C)C)ccc(O)c7C(=O)C6=C(O)[C@]5(O)C4=O)CC3)cc21 | 0.78 µg/mL (≈ 0.989 µM) |  | 130 µM | > 130 µM |  | 
COc1c(N2CCN(CNC(=O)C3=C(O)[C@@H](N(C)C)[C@@H]4C[C@@H]5Cc6c(N(C)C)ccc(O)c6C(=O)C5=C(O)[C@]4(O)C3=O)C(C)C2)c(F)cc2c(=O)c(C(=O)O)cn(C3CC3)c12 (stereo not given in full) | 0.2 µg/mL (≈ 0.237 µM) |  | 126 µM | > 126 µM |  | 
CN(C)[C@@H]1C(O)=C(C(N)=O)C(=O)[C@@]2(O)C(O)=C3C(=O)c4c(O)cccc4[C@@](C)(O)[C@H]3C[C@@H]12 [TETRACYCLINE] | > 6.25 µg/mL | 188 µM | 40.5 µM | > 40.5 µM | 204 µM | 
CN(C)[C@@H]1C(O)=C(C(=O)NCN2CCN(c3cc4c(cc3F)c(=O)c(C(=O)O)cn4C3CC3)CC2)C(=O)[C@@]2(O)C(O)=C3C(=O)c4c(O)cccc4[C@@](C)(O)[C@H]3[C@H](O)[C@@H]12 | 0.39 µg/mL (≈ 0.485 µM) | 17 µM | 17.7 µM | > 17.7 µM | 38 µM | 
CN(C)[C@@H]1C(O)=C(C(=O)NCN2CCCC2)C(=O)[C@@]2(O)C(O)=C3C(=O)c4c(O)cccc4[C@@](C)(O)[C@H]3C[C@@H]12 [ROLITETRACYCLINE] | > 6.25 µg/mL | 34 µM | 45.5 µM | > 45.5 µM | 28 µM | 
CCn1cc(C(=O)O)c(=O)c2cc(F)c(N3CCN(CNC(=O)C4=C(O)[C@@H](N(C)C)[C@@H]5[C@@H](O)[C@H]6C(=C(O)[C@]5(O)C4=O)C(=O)c4c(O)cccc4[C@@]6(C)O)CC3)cc21 | 0.78 µg/mL (≈ 0.985 µM) | 12 µM | 40 µM | 12.2 µM | 21 µM | 
CN(C)c1ccc(O)c2c1C[C@H]1C[C@H]3[C@H](N(C)C)C(O)=C(C(N)=O)C(=O)[C@@]3(O)C(O)=C1C2=O [MINOCYCLINE] | > 6.25 µg/mL |  | 52.1 µM | > 52.1 µM |  | 
